Reference: patent publication US20240165078A1, “THERAPEUTIC TARGETING OF RECEPTOR TYROSINE KINASE INHIBITOR-INDUCED ANDROGEN RECEPTOR PHOSPHORYLATION IN CANCER” (Indiana University Research and Technology Corporation, priority 2018, published 2024)
Where a SMILES comes first, the peptide text is derived from it. The star is where a group is joined. Cbz = O=C(OCc1ccccc1)*

Tests used:
[1] = system: 786-0R cells; experiment: Ki67 immunofluorescence staining; type: cell-based, human; conditions: in the presence of sunitinib and enzalutamide
Procedure: (§1) AR expression was also assessed in other RCC cell lines (FIG. 1E).

[2] = system: AR+ RCC cell lines (786-0R, UMRC2, Caki2); experiment: Crystal violet cell viability assay, AR+ RCC cell lines; type: cell-based, human
Procedure: as §1

[3] = system: KLK2; experiment: Human KLK2 ELISA, serum of 786-0 tumor bearing mice; type: in vivo; conditions: 786-0 model, end-point
[4] = system: KLK2; experiment: Human KLK2 ELISA, tissue culture supernatant; type: cell-based; conditions: in vitro, RCC cell lines
[5] = system: LNCaP cells; experiment: LNCaP cell phenotype and drug activity; type: cell-based; conditions: sunitinib-exposed LNCaP cells
[6] = system: 786-OAR cells; experiment: Sunitinib dose-response proliferation assay, AR-overexpressing cells; type: cell-based; conditions: Homo sapiens; 786-OAR (786-0 overexpressing ARwt)
Procedure: as §1

[7] = system: 786-0 cells; experiment: Sunitinib dose-response proliferation assay; type: cell-based; conditions: Homo sapiens
Procedure: as §1

[8] = molecular target: T1, androgen receptor (Homo sapiens, UniProt P10275); experiment: AR expression by immunofluorescence in RCC cells (sunitinib, enzalutamide, combination, ±MG132); type: cell-based; conditions: 786-0R and UMRC2 cells
T1 construct: Baseline AR expression was high in 786-0R and UMRC2 cells; host or cells: 786-0, 786-0R, UMRC2
T1 sequence (P10275 1-920): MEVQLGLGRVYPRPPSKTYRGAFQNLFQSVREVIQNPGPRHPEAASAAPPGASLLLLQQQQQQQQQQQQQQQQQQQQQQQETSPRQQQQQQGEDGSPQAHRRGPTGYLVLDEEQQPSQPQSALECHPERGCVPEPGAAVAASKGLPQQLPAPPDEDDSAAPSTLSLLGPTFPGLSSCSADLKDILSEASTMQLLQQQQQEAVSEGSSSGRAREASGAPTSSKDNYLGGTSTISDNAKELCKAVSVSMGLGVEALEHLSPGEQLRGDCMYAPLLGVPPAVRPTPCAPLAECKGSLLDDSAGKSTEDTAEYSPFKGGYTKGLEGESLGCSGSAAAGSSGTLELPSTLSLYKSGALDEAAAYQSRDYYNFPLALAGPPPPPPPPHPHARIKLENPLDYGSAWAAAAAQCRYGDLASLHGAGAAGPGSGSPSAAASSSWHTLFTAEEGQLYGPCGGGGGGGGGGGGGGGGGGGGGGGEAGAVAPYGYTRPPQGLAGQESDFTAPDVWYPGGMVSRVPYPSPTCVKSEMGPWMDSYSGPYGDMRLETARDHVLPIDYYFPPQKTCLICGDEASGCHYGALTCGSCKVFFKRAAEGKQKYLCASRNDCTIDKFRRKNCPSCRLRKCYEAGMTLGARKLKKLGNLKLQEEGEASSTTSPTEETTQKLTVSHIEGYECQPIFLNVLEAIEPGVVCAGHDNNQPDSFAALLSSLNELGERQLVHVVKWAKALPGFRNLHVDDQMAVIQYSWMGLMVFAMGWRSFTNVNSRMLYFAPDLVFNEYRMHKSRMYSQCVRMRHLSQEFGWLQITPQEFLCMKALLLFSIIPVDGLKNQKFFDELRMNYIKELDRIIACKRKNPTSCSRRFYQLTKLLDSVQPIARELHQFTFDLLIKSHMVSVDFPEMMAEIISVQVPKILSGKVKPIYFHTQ

[9] = system: KLK2; experiment: KLK2 serum level in RCC PDX models RP-R-02 and RP-R-02LM; type: in vivo, human; conditions: sunitinib acquired (RP-R-02) and intrinsic (RP-R-02LM) resistance models
[10] = system: KLK2; experiment: KLK2 ELISA in plasma of kidney cancer patients; type: in vivo, human; conditions: kidney cancer patients treated with sunitinib
[11] = system: AR targeted genes (KLK2, KLK4, ZBTB16, MYC); experiment: q-PCR of AR targeted genes after sunitinib; type: cell-based, human; conditions: 786-0R and UMRC2 cells, sunitinib treatment
Procedure: RNA was extracted in accordance with manufacturer's protocol (miRNeasy; Qiagen), and RNA sequencing was performed as previously described (25). In brief, RNA illumine sequencing reads were de-multiplex, aligned against human genome (hg19), and results aligned to BAM formatted sequence alignment map via cufflinks program. Differential expressed transcripts were identified between 786-0 and 786-0R samples, and ranked based on the square root of the sum of squares for the log 2 fold change. For qRT-PCR analysis, gene expression assessment on AR target genes was performed using the Prime PCR array (Bio-Rad) according to manufacturer's protocol. AR primer used is forward primer; 5-[…]-3 (SEQ ID NO:1) and reverse primer; 5-[…]-3 (SEQ ID NO:2). In brief, the denaturation step was carried out at 95° C. for 10 seconds; the annealing step was carried out at 58° C. for 30 seconds, and extension step at 72° C. for 1 minute using the applied Biosystems 7900HT fast real-time PCR system (Applied Biosystems). Sequence Detection Systems Software v2.3 was used to identify cycle threshold (Ct) values and generate gene expression curves. All data were normalized to either GAPDH expression.
Gene expression of AR targeted genes was then examined in the presence or absence of sunitinib treatment.

[12] = molecular target: T1, androgen receptor; experiment: AR expression by immunofluorescence in UMRC2siSPOP cells; type: cell-based; conditions: UMRC2siSPOP compared to UMRC2, in the presence of sunitinib
[13] = system: CDK1; experiment: Western blot for CDK1 in RP-R-02LM tumors treated in vivo; conditions: RP-R-02LM intrinsically sunitinib-resistant tumors
Excerpt: Cells were maintained and cultured in the appropriate media, supplemented with 10% FBS and 1% penicillin and streptomycin. All cells are routinely tested and checked for the absence of mycoplasma. […] Crystal violet assay (Sigma) was used to evaluate cells growth after different time point-treatment, and absorbance was read using a spectrometer (xMarks Spectrometer, Bio-Rad). […] Six-week-old homozygous ICR, Severe Combined Immune-deficient (SCID) female mice were housed in a sterile, pathogen-free facility and maintained in a temperature controlled room, under a 12-hour light/dark schedule with water and food ad libitum. […] All mice were operated under sedation with oxygen, isoflurane and buprenorphine. When tumors were established, and reached 50 mm^2, mice were randomly grouped and placed in either control group or treatment groups (n=5-10). […] Tumor burden was assessed once a week by caliper measurement of two diameters of the tumor (L×W=mm^2) and reported as tumor volume ((L×W2)/2=mm^3). Body weights were assessed using a weighing scale and recorded in grams. Endpoint tumor weights were assessed using a weigh scale and recorded in grams. […]
Whole cell protein extracts from tissue and cell were denatured, separated on SDS-PAGE gels and transferred to nitrocellulose membranes. […] Quantitative measurements of Western blot analysis were performed using ImageJ and Graph-Pad software (Prism 7).

[14] = system: 786-0 tumors; experiment: 786-0 RCC tumor model in mice; type: in vivo

CC(C)C[C@@H](C=O)NC(=O)[C@H](CC(C)C)NC(=O)[C@H](CC(C)C)NC(=O)OCc1ccccc1 [MG132] (Cbz-Leu-Leu-Leu-aldehyde)
cell proliferation (Ki67 staining) [1]: restoration of cell proliferation

CNC(=O)c1ccc(N2C(=S)N(c3ccc(C#N)c(C(F)(F)F)c3)C(=O)C2(C)C)cc1F [enzalutamide, 4-(3-(4-cyano-3-(trifluoromethyl)phenyl)-5,5-dimethyl-4-oxo-2-thioxoimidazolidin-1-yl)-2-fluoro-N-methylbenzamide]
cell viability, single agent ([2]; AR+ 786-0R cells): did not have a significant effect | circulating KLK2 levels [3]: decreased | KLK2 in tissue culture supernatant [4]: modulated

CCN(CC)CCNC(=O)c1c(C)[nH]c(/C=C2\C(=O)Nc3ccc(F)cc32)c1C [sunitinib, N-(2-Diethylaminoethyl)-5-[(Z)-(5-fluoro-2-oxo-1H-indol-3-ylidene)methyl]-2,4-dimethyl-1H-pyrrole-3-carboxamide]
activity of enzalutamide [5]: increased the activity of enzalutamide | IC50 [6]: 12.3 µM | IC50 [7]: 5.2 µM | AR expression [8]: increased | KLK2 in serum [9]: increased | IC50 for sunitinib by AR status ([2]; AR+ lines (786-0R, UMRC2, Caki2) compared to AR- lines (786-0, ACHN)): higher IC50 | KLK2 in plasma [10]: increase of KLK2 | increased gene expression of KLK2, KLK4, ZBTB16 and MYC [11]: 2-100 fold | AR expression [12]: significant increased AR expression | KLK2 in tissue culture supernatant [4]: increased KLK2 | CDK1 protein expression [13]: increased CDK1 protein expression | angiogenesis (CD31 staining) ([14]; 786-0 tumors): inhibition of angiogenesis | proliferation in vivo (Ki67 staining) ([14]; 786-0 tumors): continued to proliferate | time when tumors became resistant to sunitinib (≥50% increase volume from nadir) ([14]; second experiment, sunitinib 40 mg/kg): 45 days
